Values quoted from earlier work as cited in patent publication US10376470B2, “Oral tablet formulation consisting of fixed combination of rosuvastatin and ezetimibe for treatment of hyperlipidemia and cardiovascular diseases” (Althera Life Sciences, LLC, priority 2012, dated 2019).

- Solubility in water: practically insoluble
Compound: O=C1[C@H](CC[C@H](O)c2ccc(F)cc2)[C@@H](c2ccc(O)cc2)N1c1ccc(F)cc1 [Ezetimibe, ezetimibe]
